Source: PMC9395446, “First-in-human phase 1/1b study to evaluate sitravatinib in patients with advanced solid tumors” (Investigational New Drugs, 2022)

Test: Safety in phase 1/1b study (DLTs, TRAEs, TEAEs; CTCAE v4.03)
Type: in vivo, human
From the text: Safety assessments included evaluation of DLTs, AEs, physical examinations, vital sign measurements, electrocardiogram recordings and laboratory tests.
A DLT was defined as a grade ≥ 4 hematologic abnormality lasting ≥ 4 days; grade 3 thrombocytopenia with clinically significant bleeding; febrile neutropenia; clinically significant grade ≥ 3 non-hematologic AEs not related to underlying malignancy; intolerable grade 2 AEs; or toxicity resulting in an inability to deliver 80% of the dose during the first treatment cycle.
The safety population included all patients who received ≥ 1 dose of sitravatinib. […] The PK evaluable population included all patients with sufficient concentration-time data for PK parameter evaluation. The modified intent-to-treat (mITT) population included all phase 1b patients who received ≥ 1 dose of study drug.

## COCCNCc1ccc(-c2cc3nccc(Oc4ccc(NC(=O)C5(C(=O)Nc6ccc(F)cc6)CC5)cc4F)c3s2)nc1 [sitravatinib, Sitravatinib]
120 mg
  Patients discontinued due to TRAEs: 11.3%
120 mg arm
  Patients with grade ≥ 3 TRAEs: 51.6%
  Patients with serious TRAEs: 8.1%
120 mg phase 1b
  ALT increased TEAE, any grade: 17 (27.4) n (%)
  ALT increased TEAE, grade ≥3: 1 (1.6) n (%)
  ALT increased TRAE, any grade: 15 (24.2) n (%)
  ALT increased TRAE, grade ≥3: 1 (1.6) n (%)
  AST increased TEAE, any grade: 16 (25.8) n (%)
  AST increased TEAE, grade ≥3: 0 n (%)
  AST increased TRAE, any grade: 14 (22.6) n (%)
  AST increased TRAE, grade ≥3: 0 n (%)
  Abdominal pain TEAE, any grade: 14 (22.6) n (%)
  Abdominal pain TEAE, grade ≥3: 3 (4.8) n (%)
  Abdominal pain TRAE, any grade: 8 (12.9) n (%)
  Abdominal pain TRAE, grade ≥3: 0 n (%)
  Anemia TEAE, any grade: 10 (16.1) n (%)
  Anemia TEAE, grade ≥3: 3 (4.8) n (%)
  Any TEAE: 60 (96.8) n (%)
  Any TRAE: 58 (93.5) n (%)
  Asthenia TEAE, any grade: 7 (11.3) n (%)
  Asthenia TEAE, grade ≥3: 0 n (%)
  Back pain TEAE, any grade: 6 (9.7) n (%)
  Back pain TEAE, grade ≥3: 0 n (%)
  Blood and lymphatic system disorders TEAE, any grade: 16 (25.8) n (%)
  Blood and lymphatic system disorders TEAE, grade ≥3: 7 (11.3) n (%)
  Blood creatinine increased TEAE, any grade: 3 (4.8) n (%)
  Blood creatinine increased TEAE, grade ≥3: 0 n (%)
  Cardiac disorders TEAE, any grade: 6 (9.7) n (%)
  Cardiac disorders TEAE, grade ≥3: 2 (3.2) n (%)
  Constipation TEAE, any grade: 21 (33.9) n (%)
  Constipation TEAE, grade ≥3: 0 n (%)
  Constipation TRAE, any grade: 11 (17.7) n (%)
  Constipation TRAE, grade ≥3: 0 n (%)
  Cough TEAE, any grade: 7 (11.3) n (%)
  Cough TEAE, grade ≥3: 0 n (%)
  Decreased appetite TEAE, any grade: 21 (33.9) n (%)
  Decreased appetite TEAE, grade ≥3: 2 (3.2) n (%)
  Decreased appetite TRAE, any grade: 17 (27.4) n (%)
  Decreased appetite TRAE, grade ≥3: 1 (1.6) n (%)
  Dehydration TEAE, any grade: 8 (12.9) n (%)
  Dehydration TEAE, grade ≥3: 0 n (%)
  Diarrhea TEAE, any grade: 36 (58.1) n (%)
  Diarrhea TEAE, grade ≥3: 4 (6.5) n (%)
  Diarrhea TRAE, any grade: 31 (50.0) n (%)
  Diarrhea TRAE, grade ≥3: 4 (6.5) n (%)
  Dizziness TEAE, any grade: 10 (16.1) n (%)
  Dizziness TEAE, grade ≥3: 0 n (%)
  Dizziness TRAE, any grade: 6 (9.7) n (%)
  Dizziness TRAE, grade ≥3: 0 n (%)
  Dry mouth TEAE, any grade: 7 (11.3) n (%)
  Dry mouth TEAE, grade ≥3: 0 n (%)
  Dry mouth TRAE, any grade: 7 (11.3) n (%)
  Dry mouth TRAE, grade ≥3: 0 n (%)
  Dysphonia TEAE, any grade: 16 (25.8) n (%)
  Dysphonia TEAE, grade ≥3: 0 n (%)
  Dysphonia TRAE, any grade: 12 (19.4) n (%)
  Dysphonia TRAE, grade ≥3: 0 n (%)
  Dyspnea TEAE, any grade: 5 (8.1) n (%)
  Dyspnea TEAE, grade ≥3: 1 (1.6) n (%)
  Edema peripheral TEAE, any grade: 6 (9.7) n (%)
  Edema peripheral TEAE, grade ≥3: 0 n (%)
  Endocrine disorders TEAE, any grade: 20 (32.3) n (%)
  Fatigue TEAE, any grade: 26 (41.9) n (%)
  Fatigue TEAE, grade ≥3: 7 (11.3) n (%)
  Fatigue TRAE, any grade: 21 (33.9) n (%)
  Fatigue TRAE, grade ≥3: 6 (9.7) n (%)
  Gastrointestinal disorders TEAE, any grade: 53 (85.5) n (%)
  General disorders and administration site conditions TEAE, any grade: 38 (61.3) n (%)
  General disorders and administration site conditions TEAE, grade ≥3: 8 (12.9) n (%)
  Headache TEAE, grade ≥3: 1 (1.6) n (%)
  Hypertension TEAE, any grade: 25 (40.3) n (%)
  Hypertension TEAE, grade ≥3: 12 (19.4) 12 (19.4) n (%)
  Hypertension TRAE, any grade: 24 (38.7) n (%)
  Hypertension TRAE, grade ≥3: 11 (17.7) n (%)
  Hypokalemia TEAE, any grade: 4 (6.5) n (%)
  Hypokalemia TEAE, grade ≥3: 0 n (%)
  Hypomagnesemia TEAE, any grade: 4 (6.5) n (%)
  Hypomagnesemia TEAE, grade ≥3: 0 n (%)
  Hyponatremia TEAE, any grade: 6 (9.7) n (%)
  Hyponatremia TEAE, grade ≥3: 3 (4.8) n (%)
  Hypophosphatemia TEAE, any grade: 3 (4.8) n (%)
  Hypophosphatemia TEAE, grade ≥3: 1 (1.6) n (%)
  Hypothyroidism TEAE, any grade: 19 (30.6) n (%)
  Hypothyroidism TRAE, any grade: 14 (22.6) n (%)
  Hypothyroidism TRAE, grade ≥3: 0 n (%)
  Infections and infestations TEAE, any grade: 18 (29.0) n (%)
  Infections and infestations TEAE, grade ≥3: 7 (11.3) n (%)
  Injury, poisoning, procedural complications TEAE, any grade: 11 (17.7) n (%)
  Injury, poisoning, procedural complications TEAE, grade ≥3: 0 n (%)
  Investigations TEAE, any grade: 34 (54.8) n (%)
  Investigations TEAE, grade ≥3: 7 (11.3) n (%)
  Lipase increased TEAE, any grade: 8 (12.9) n (%)
  Lipase increased TEAE, grade ≥3: 3 (4.8) n (%)
  Metabolism and nutrition disorders TEAE, any grade: 38 (61.3) n (%)
  Metabolism and nutrition disorders TEAE, grade ≥3: 11 (17.7) n (%)
  Musculoskeletal and connective tissue disorders TEAE, any grade: 28 (45.2) n (%)
  Musculoskeletal and connective tissue disorders TEAE, grade ≥3: 2 (3.2) n (%)
  Nausea TEAE, any grade: 19 (30.6) n (%)
  Nausea TEAE, grade ≥3: 0 n (%)
  Nausea TRAE, any grade: 14 (22.6) n (%)
  Nausea TRAE, grade ≥3: 0 n (%)
  Neoplasms benign, malignant, unspecified TEAE, any grade: 11 (17.7) n (%)
  Neoplasms benign, malignant, unspecified TEAE, grade ≥3: 8 (12.9) n (%)
  Nervous system disorders TEAE, any grade: 28 (45.2) n (%)
  Nervous system disorders TEAE, grade ≥3: 3 (4.8) n (%)
  PPE syndrome TEAE, any grade: 14 (22.6) n (%)
  PPE syndrome TEAE, grade ≥3: 6 (9.7) n (%)
  PPE syndrome TRAE, any grade: 13 (21.0) n (%)
  PPE syndrome TRAE, grade ≥3: 6 (9.7) n (%)
  Pain in extremity TEAE, any grade: 4 (6.5) n (%)
  Pain in extremity TEAE, grade ≥3: 0 n (%)
  Proteinuria TEAE, any grade: 13 (21.0) n (%)
  Proteinuria TEAE, grade ≥3: 2 (3.2) n (%)
  Proteinuria TRAE, any grade: 11 (17.7) n (%)
  Proteinuria TRAE, grade ≥3: 2 (3.2) n (%)
  Psychiatric disorders TEAE, any grade: 7 (11.3) n (%)
  Psychiatric disorders TEAE, grade ≥3: 2 (3.2) n (%)
  Rash TEAE, any grade: 9 (14.5) n (%)
  Rash TEAE, grade ≥3: 2 (3.2) n (%)
  Rash TRAE, any grade: 6 (9.7) n (%)
  Rash TRAE, grade ≥3: 2 (3.2) n (%)
  Renal and urinary disorders TEAE, any grade: 19 (30.6) n (%)
  Renal and urinary disorders TEAE, grade ≥3: 5 (8.1) n (%)
  Respiratory, thoracic and mediastinal disorders TEAE, any grade: 34 (54.8) n (%)
  Respiratory, thoracic and mediastinal disorders TEAE, grade ≥3: 3 (4.8) n (%)
  Serious TEAE: 21 (33.9) n (%)
  Serious TRAE: 5 (8.1) n (%)
  Skin and subcutaneous tissue disorders TEAE, any grade: 33 (53.2) n (%)
  Skin and subcutaneous tissue disorders TEAE, grade ≥3: 8 (12.9) n (%)
  Stomatitis TEAE, any grade: 11 (17.7) n (%)
  Stomatitis TEAE, grade ≥3: 1 (1.6) n (%)
  Stomatitis TRAE, any grade: 11 (17.7) n (%)
  Stomatitis TRAE, grade ≥3: 1 (1.6) n (%)
  TEAE grade ≥3: 45 (72.6) n (%)
  TEAE leading to death: 8 (12.9) n (%)
  TEAE leading to discontinuation: 12 (19.4) n (%)
  TEAE leading to treatment modification: 46 (74.2) n (%)
  TRAE grade ≥3: 32 (51.6) n (%)
  TRAE leading to death: 0 n (%)
  TRAE leading to discontinuation: 7 (11.3) n (%)
  TRAE leading to treatment modification: 42 (67.7) n (%)
  UTI TEAE, any grade: 6 (9.7) n (%)
  UTI TEAE, grade ≥3: 1 (1.6) n (%)
  Vascular disorders TEAE, any grade: 32 (51.6) n (%)
  Vascular disorders TEAE, grade ≥3: 12 (19.4) 12 (19.4) n (%)
  Vomiting TEAE, any grade: 12 (19.4) n (%)
  Vomiting TEAE, grade ≥3: 0 n (%)
  Vomiting TRAE, any grade: 9 (14.5) n (%)
  Vomiting TRAE, grade ≥3: 0 n (%)
  Weight decreased TEAE, any grade: 10 (16.1) n (%)
  Weight decreased TEAE, grade ≥3: 0 n (%)
  Weight decreased TRAE, any grade: 7 (11.3) n (%)
  Weight decreased TRAE, grade ≥3: 0 n (%)
150 mg
  Patients discontinued due to TRAEs: 17.2%
150 mg arm
  Patients with grade ≥ 3 TRAEs: 61.6%
  Patients with serious TRAEs: 22.2%
150 mg phase 1b
  ALT increased TEAE, any grade: 25 (25.3) n (%)
  ALT increased TEAE, grade ≥3: 3 (3.0) n (%)
